Results published in patent publication EP1366764A1, “Method of screening for calcium receptor-active molecules” (The Brigham & Women's Hospital, Inc., priority 1993, dated 1994).

Legend:
[1] = polymers of 1000 amino acids; cited from earlier work
[2] = Hypocalcemic activity in vivo (serum or whole blood ionized Ca2+, PTH) in rats
rat osteoclasts = test: Measurement of [Ca2+]i in single rat osteoclasts (indo-1); assay type: cell-based; details: for EC50: Osteoclast; for effect on the response to subsequent extracellular Ca^2+: neomycin 10 mM (25 mM extracellular Ca2+), spermine 20 mM, verapamil 100 µM; for increases in [Ca^2+]i in rat osteoclasts: neomycin 10 mM, spermine 10 or 20 mM; for increase in [Ca^2+]i in osteoclasts: neomycin B 1 mM, spermine 1 or 5 mM
[3] = Serum ionized Ca2+ in parathyroidectomized rats; assay type: in vivo
Description: To determine the primary target tissue upon which NPS 467 acts to cause a hypocalcemic response, the para thyroid glands in rats were surgically removed.

human parathyroid cells [4] = test: Measurement of [Ca2+]i (fura-2) in human parathyroid cells; assay type: cell-based
rMTC 6-23 cells = test: Measurement of cytosolic Ca2+ in C-cells (fura-2); assay type: cell-based, rat; details: for effect on basal [Ca^2+]i: spermine 10 mM, neomycin B 5 mM
[5] = Serum ionized Ca2+ in the 5/6 nephrectomized rat (model of secondary hyperparathyroidism); assay type: in vivo, rats; details: 10 mg/kg i.p.
Description: An accepted and widely used animal model of secondary hyperparathyroidism arising from chronic renal failure is the 5/6 nephrectomized rat. Animals receiving such surgery become initially hypocalcemic and, to maintain serum Ca^2+ levels, there is a compensatory hyperplasia of the parathyroid glands and elevated levels of circulating PTH. Male Sprague-Dawley rats (250 g) received a 5/6 nephrectomy and were allowed to recover for 2 weeks. At this time they were normocalcemic (due to elevated levels of serum PTH).

[6] = Net positive charge of the molecule; assay type: physicochemical
Ca^2+ receptor [7] = target: T1, Ca^2+ receptor (Homo sapiens, UniProt P41180); test: Cl- current in Xenopus oocytes injected with human parathyroid cell mRNA; assay type: cell-based; details: for concentration causing the mobilization of intracellular Ca^2+ in oocytes: oocytes injected with mRNA from human parathyroid cells
T1 construct: Oocytes were injected with poly(A)^+-enriched mRNA from human parathyroid tissue; expressed in transfected cells; host or cells: Xenopus laevis oocytes injected with poly(A)+ mRNA from human hyperplastic parathyroid glands (secondary HPT)
T1 sequence (P41180 20-1078): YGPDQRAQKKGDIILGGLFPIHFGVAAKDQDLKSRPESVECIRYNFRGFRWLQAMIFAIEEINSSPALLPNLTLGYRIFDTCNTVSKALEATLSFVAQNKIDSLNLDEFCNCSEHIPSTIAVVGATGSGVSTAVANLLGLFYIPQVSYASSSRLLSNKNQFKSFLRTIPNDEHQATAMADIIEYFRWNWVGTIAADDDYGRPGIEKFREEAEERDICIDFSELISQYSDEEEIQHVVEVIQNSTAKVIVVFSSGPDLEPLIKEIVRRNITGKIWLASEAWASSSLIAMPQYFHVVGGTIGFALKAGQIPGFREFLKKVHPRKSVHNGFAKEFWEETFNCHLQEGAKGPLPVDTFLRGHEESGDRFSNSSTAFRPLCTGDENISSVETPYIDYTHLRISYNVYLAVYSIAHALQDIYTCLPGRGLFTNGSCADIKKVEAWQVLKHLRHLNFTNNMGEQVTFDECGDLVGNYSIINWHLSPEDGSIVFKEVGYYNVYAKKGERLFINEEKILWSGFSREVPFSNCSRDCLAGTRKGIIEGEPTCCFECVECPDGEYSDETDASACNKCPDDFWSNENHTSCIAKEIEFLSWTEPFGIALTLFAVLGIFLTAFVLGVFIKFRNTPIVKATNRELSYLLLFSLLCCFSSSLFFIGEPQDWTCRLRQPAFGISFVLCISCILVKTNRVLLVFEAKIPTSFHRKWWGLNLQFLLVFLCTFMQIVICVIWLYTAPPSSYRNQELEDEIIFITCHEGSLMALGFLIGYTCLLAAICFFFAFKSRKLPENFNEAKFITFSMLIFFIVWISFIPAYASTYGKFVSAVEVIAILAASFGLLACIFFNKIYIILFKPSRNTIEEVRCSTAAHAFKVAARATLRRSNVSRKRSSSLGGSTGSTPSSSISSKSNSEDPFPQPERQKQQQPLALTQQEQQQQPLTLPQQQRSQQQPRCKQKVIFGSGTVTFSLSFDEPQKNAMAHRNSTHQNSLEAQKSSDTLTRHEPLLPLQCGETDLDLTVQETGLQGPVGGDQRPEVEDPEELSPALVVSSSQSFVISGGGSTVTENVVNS

Ca^2+ receptor [8] = target: T2, Ca^2+ receptor (Bos taurus, UniProt P35384); test: 45Ca2+ release from Xenopus oocytes injected with bovine parathyroid mRNA; assay type: cell-based; details: 10 mM for 20 min; compared to mock challenge with buffer
T2 construct: oocytes were injected with bovine parathyroid mRNA or water; expressed in transfected cells; host or cells: Xenopus laevis oocytes injected with poly(A)+ mRNA from bovine (calf) parathyroid glands
T2 sequence (P35384 20-1085): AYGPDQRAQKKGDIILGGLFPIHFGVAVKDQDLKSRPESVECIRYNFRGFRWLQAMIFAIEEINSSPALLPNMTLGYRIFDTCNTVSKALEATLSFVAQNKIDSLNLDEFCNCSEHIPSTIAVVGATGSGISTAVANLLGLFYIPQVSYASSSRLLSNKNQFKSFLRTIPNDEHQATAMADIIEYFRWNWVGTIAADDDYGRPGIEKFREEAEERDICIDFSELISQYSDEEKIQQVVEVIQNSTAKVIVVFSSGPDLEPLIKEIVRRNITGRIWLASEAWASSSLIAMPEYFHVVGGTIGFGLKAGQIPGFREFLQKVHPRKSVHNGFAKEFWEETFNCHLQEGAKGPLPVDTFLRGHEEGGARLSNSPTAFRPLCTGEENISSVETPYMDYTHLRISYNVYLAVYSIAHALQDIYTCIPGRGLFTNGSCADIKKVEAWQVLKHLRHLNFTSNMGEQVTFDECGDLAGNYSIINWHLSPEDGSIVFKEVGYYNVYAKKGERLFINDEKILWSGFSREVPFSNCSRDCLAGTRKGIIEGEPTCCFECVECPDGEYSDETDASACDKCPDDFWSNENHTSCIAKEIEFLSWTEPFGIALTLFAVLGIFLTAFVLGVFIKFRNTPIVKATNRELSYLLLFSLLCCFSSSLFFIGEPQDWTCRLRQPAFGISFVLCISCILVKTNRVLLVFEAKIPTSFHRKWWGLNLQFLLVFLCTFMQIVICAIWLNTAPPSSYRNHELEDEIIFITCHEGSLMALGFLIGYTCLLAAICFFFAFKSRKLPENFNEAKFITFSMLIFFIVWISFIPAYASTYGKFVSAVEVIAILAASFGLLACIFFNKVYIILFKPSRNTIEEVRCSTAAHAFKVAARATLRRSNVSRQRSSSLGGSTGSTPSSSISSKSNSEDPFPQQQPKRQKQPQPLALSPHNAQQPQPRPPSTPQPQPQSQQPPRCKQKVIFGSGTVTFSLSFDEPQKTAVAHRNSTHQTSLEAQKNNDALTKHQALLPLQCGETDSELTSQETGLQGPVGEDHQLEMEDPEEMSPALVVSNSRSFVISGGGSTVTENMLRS
Description: Prior to being stimulated, oocytes were loaded with ^45Ca^2+.

[9] = target: T3, bovine parathyroid Ca^2+-receptor (Bos taurus, UniProt P35384); test: Cl- current in Xenopus oocytes expressing the cloned receptor (BoPCaR 1); assay type: cell-based
T3 construct: expressed in transfected cells; host or cells: Xenopus laevis oocytes injected with cRNA from the BoPCaR 1 cDNA (plasmid pSPORT1, ATCC 75416)
T3 sequence (P35384 20-1085): T2 sequence (P35384 20-1085)
Description: An expression cloning strategy using Xenopus laevis oocytes was used to identify the cDNA encoding the bovine parathyroid calcium receptor. These techniques are described only briefly here, and a more complete description preceded this one in the sections describing techniques which may be used to clone additional forms of the Ca^2+-receptor from other cell types. Poly(A^+)-enriched RNA was initially prepared from bovine parathyroid glands using extraction with guanidinium thiocyanate, centrifugation through CsCl and oligo(dT) cellulose chromatography. […] No such currents were elicited in control eggs injected with water. […] The mRNA was then subjected to size fractionation, utilizing preparative, continuous flow agarose gel electrophoresis (Hediger, M.A., Anal. Biochem. 159:280-286 (1986)) to obtain fractions of poly(A^+)-RNA further enriched in transcripts coding for the Ca^2+-receptor. […] A plasmid containing the BoPCaR 1 […] (See plasmid, Figure 45; restriction map, Figure 46; and partial nucleotide sequence, Figure 47) has been deposited in the ATCC under deposit number ATCC 75416.
Several pharmacological and biochemical criteria were used to identify this clone as encoding a bona fide bovine parathyroid Ca^2+-receptor. […] These responses increased markedly over a period of one (1) to four (4) days after injection of the eggs with cRNA prepared from the BoPCaR 1 cDNA. […]

human parathyroid cells [10] = test: Measurement of PTH secretion from human parathyroid cells (radioimmunoassay); assay type: cell-based; details: human (adenoma) parathyroid cells; at concentrations that caused the mobilization of intracellular Ca2+
Method: Cells were suspended in PCB containing 0.5 mM CaCl2 and 0.1% BSA.
For human cells, a commercially available radioimmunoassay kit (INS-PTH; Nichols Institute, Los Angeles, CA) which recognizes intact and N-terminal human PTH was used because GW-1 antibody recognizes human PTH poorly.

[11] = rat osteoclasts, indo-1, "inactive" = no increase in cytosolic Ca2+ at 1 mM or 1-5 mM (footnote)

Compound: polylysine
- Kd [1]: 0.0005 µM

Compound: COc1cccc([C@@H](C)NCCCc2ccccc2Cl)c1 [NPS R-568]
- ED50 ([2]; Rattus norvegicus, read-out: ED50 for decrease in the levels of serum Ca^2+, oral administration to rats): 7 mg/kg
- EC50 (rat osteoclasts; [11]): 200 µM
- hypocalcemic response in parathyroidectomized rats ([3]; oral administration): fails to elicit a hypocalcemic response
- EC50 (human parathyroid cells [4]; read-out: EC50 for the mobilization of intracellular Ca^2+ / increase in [Ca^2+]i, human parathyroid cells (adenoma)): 3 µM
- EC50 (rMTC 6-23 cells; Rattus norvegicus, rMTC 6-23 cells, fura-2, "inactive" = no increase in cytosolic Ca2+ at 1 mM or 1-5 mM (footnote), read-out: EC50 (C-CELL)): > 300 µM

Compound: COc1cccc([C@@H](C)NCCCc2ccccc2)c1 (single isomer, unassigned) [NPS R-467]
- decrease in serum ionized Ca^2+ from the control level ([2]; 10 mg/kg i.p., single dose, rats on normal calcium-replete diet, at maximum): 22%
- time serum ionized Ca^2+ remained depressed ([2]; 10 mg/kg i.p., normal diet): up to 6 hours
- time to maximal fall in serum ionized Ca^2+ ([2]; 10 mg/kg i.p., normal diet): ≤ 1 h
- potency in lowering serum Ca^2+ in vivo, R- versus S-isomer ([2]; each compound at 5 mg/kg body weight): more potent than the S-isomer
- serum levels of ionized Ca^2+ after oral dosing ([2]; single oral dose in corn oil by gavage, three hours, fasted rats): dose-dependent reduction
- EC50 (rat osteoclasts; [11]): > 100 µM
- change in serum ionized Ca^2+ levels ([3]; 10 mg/kg i.p., single dose, over 6 hours): did not cause any change
- time to fall in serum ionized Ca^2+ [5]: ≤ 2 h
- serum ionized Ca^2+ levels, % of controls ([5]; 5/6 nephrectomized rats, 2 weeks after surgery): 83 % of controls

Compound: N^1,N^1,N^5,N^14,N^14-tetrakis-(3-aminopropyl)spermine [NPS 382]
- Net (+) Charge ([6]; pH 7.3): +8
- concentration causing the mobilization of intracellular Ca^2+ in oocytes (Ca^2+ receptor [7]): 5000 µM

Compound: C1CNCCNCCNCCNCCNCCN1 [hexacyclen, 1,4,7,10,13,16-hexaaza-cyclooctadecane]
- Net (+) Charge ([6]; at physiological pH (pH 7.3)): +6
- concentration causing the mobilization of intracellular Ca^2+ in oocytes (Ca^2+ receptor [7]): 135 µM

Compound: NC[C@@H]1O[C@H](O[C@H]2[C@@H](O)[C@H](O[C@@H]3[C@@H](O)[C@H](N)C[C@H](N)[C@H]3O[C@H]3O[C@H](CN)[C@@H](O)[C@H](O)[C@H]3N)O[C@@H]2CO)[C@H](N)[C@@H](O)[C@@H]1O [neomycin B]
- Net (+) Charge ([6]; at physiological pH (pH 7.3)): +6
- increase in ^45Ca^2+ release (Ca^2+ receptor [8]): 76%
- inhibition of PTH secretion (human parathyroid cells [10]): inhibited PTH secretion from human parathyroid cells
- increase in [Ca^2+]i (human parathyroid cells [4]; 20 µM): evoked a large increase in [Ca^2+]i
- EC50 (C-CELL) (rMTC 6-23 cells; rMTC 6-23 cells, fura-2, "inactive" = no increase in cytosolic Ca2+ at 1 mM or 1-5 mM (footnote)): inactive
- effect on basal [Ca^2+]i (rMTC 6-23 cells): without effect
- change in current in water-injected oocytes (Ca^2+ receptor [7]; 10 mM, five water-injected oocytes (specificity control)): failed to cause any change in the current

Compound: NCCCNCCCCNCCCN [spermine]
- effect on the response to subsequent extracellular Ca^2+ (rat osteoclasts): did depress the response to extracellular Ca^2+
- increases in [Ca^2+]i in rat osteoclasts (rat osteoclasts): Neither neomycin (10 mM) nor spermine (10 or 20 mM) caused increases
- increase in [Ca^2+]i in osteoclasts (rat osteoclasts): failed to evoke any increase in [Ca^2+]i
- increase in [Ca^2+]i (human parathyroid cells [4]; 300 µM): only a small increase in [Ca^2+]i
- effect on basal [Ca^2+]i (rMTC 6-23 cells): without effect
